How the values were obtained:
Assay in all cases: mycelial growth from inoculum plugs in amended basal nutrient solution
[1] = tested on: Rhizoctonia solani; format: cell-based; details: fungicide control
Description: (§1) The efficacy of the garlic extract was tested against nine (9) soil-borne fungi that cause root and lower stem rots of plants. The fungal pathogens included: Pythium aphanidermatum, Pythium irregular, Pythium ultimum, Phytophthora capsici, Phytophthora cinnamomi, Phytophthora nicotiana, Rhizoctonia solani, Fusarium oxysporum fsp. lycopersici, Fusarium oxysporum f.sp. spinaciae, and Thielaviopsis basicola. All isolates used in this investigation were known to be pathogenic to various cultivated plant species.
(§2) All isolates of Pythium aphanidermatum, Pythium irregular, Pythum ultimum, Phytophthora capsici, Phytophthora cinnamomi, Phytophthora nicotiana, Rhizoctonia solani, Fusarium oxysporum f.sp. lycopersici, Fusarium oxysporum f.sp. spinaciae were grown on standard corn meal agar (CMA) for 8 to 9 days. Plugs from inoculum plates were taken using a #4 cork borer (5 mm diameter). Inoculum plugs were placed into 5-cm sterile plastic petri dishes containing 10 ml of a basal nutrient solution that consisted of 60% (v/v) clarified V-8 juice and sterile distilled water (SDW). Basal nutrient solutions were amended with the appropriate treatments. […] Cultures were placed into a growth chamber and maintained in the dark at 22(C(1(C. After 48 hours, mycelial growth (if any was visible) from culture plugs was measured.

[2] = tested on: Pythium aphanidermatum, Pythium irregular, Pythium ultimum; format: cell-based, Pythium species; details: basal nutrient solution amended with fungicide control; 48 hours
Description: as §1, §2

[3] = tested on: Phytophthora capsici, Phytophthora cinnamomi, Phytophthora nicotiana; format: cell-based, Phytophthora species; details: basal nutrient solution amended with fungicide control; 48 hours
Description: as §1, §2

| SMILES | growth on amended basal nutrient solution ([1]; first replication (inappropriate concentration)) | growth on amended basal nutrient solution ([1]; second replication) | growth from the inoculum plugs [2] | growth from the inoculum plugs [3] |
| --- | --- | --- | --- | --- |
| O=[N+]([O-])c1c(Cl)c(Cl)c(Cl)c(Cl)c1Cl [PCNB] | limited amount of growth | did not grow | – | – |
| COCC(=O)N(c1c(C)cccc1C)C(C)C(=O)OC (stereo not shown) [metalaxyl] | – | – | none | none |

— US20070009617A1, “Method for preventing fungal growth in plants” (priority 2003, published 2007)
